In patent publication US10065990B2, “Cyclic peptide compound, and preparation method, pharmaceutical composition and use thereof” (HANGZHOU GUANYU BIO-MEDICAL CO., LTD, priority 2013, dated 2018):
Read-outs that look alike come from different tables or passages of the source.

Assays:
[1] = tested on: Bel-7402 (human hepatoma cells); experiment: MTT cancer cell growth inhibition; type: cell-based; conditions: Homo sapiens, Bel-7402, 72 h, MTT, 72 hours incubation, Bel-7402 cells; read-out: GI50 Bel-7402
Source text: (§1) MTT assay principle is yellow MTT can penetrate membrane into the cell, succinic dehydrogenase of the mitochondria in living cells can make exogenous MTT reduction of insoluble in water of blue-violet acicular formazan for crystallization and deposition in the cell, crystallization can be dissolved dimethyl sulfoxide (DMSO) solution, detected its absorbance at 490 nm/570 nm wavelength by enzyme-linked immunosorbent assay, which can reflect the number of cells.
(§2) Using DMEM+10% FBS culture medium or using 1640+10% FBS culture, respectively.
(§3) a) Cells were seeded in 96-well plates with the inoculation of 1500/well, 190 μl/hole, 37° C., 5% of CO2 incubator overnight;
(§4) b) The next day each well was added 10 μl of different drugs. The final concentration of drug was 10^−5˜10^−10M, three parallel holes; 37° C., 5% CO2 culture incubator for 72 hours incubation;
(§5) c) Per well was added 20 μl 5 mg/ml of MTT, 37° C., 5% CO2 culture incubator for 4 hours incubation;
(§6) d) The supernatant was discarded. Each well was added 100 μl of DMSO and oscillation;
(§7) e) 570 nm readings. Calculate cell viability. GI50 calculation based on the results.

[2] = tested on: HCC827 (human non-small cell lung cancer cells); experiment: MTT cancer cell growth inhibition; type: cell-based; conditions: Homo sapiens, HCC827, 72 h, MTT, 72 hours incubation, HCC827 cells; read-out: GI50 HCC827
Source text: as §1, §2, §3, §4, §5, §6, §7

[3] = tested on: HT1080 (human fibrosarcoma cells); experiment: MTT cancer cell growth inhibition; type: cell-based; conditions: Homo sapiens, HT-1080, 72 h, MTT, 72 hours incubation, read-out: GI50 HT1
Source text: as §1, §2, §3, §4, §5, §6, §7

[4] = tested on: H1975 (non-small cell lung adenocarcinoma); experiment: MTT cancer cell growth inhibition; type: cell-based; conditions: Homo sapiens, NCI-H1975, 72 h, MTT, 72 hours incubation, H1975 cells; read-out: GI50 H1975
Source text: as §1, §2, §3, §4, §5, §6, §7

[5] = tested on: Huh-7 (human hepatoma cells); experiment: MTT cancer cell growth inhibition; type: cell-based; conditions: Homo sapiens, Huh-7, 72 h, MTT, 72 hours incubation, Huh-7 cells; read-out: GI50 Huh-7
Source text: as §1, §2, §3, §4, §5, §6, §7

[6] = tested on: SGC-7901 (human gastric cancer cells); experiment: MTT cancer cell growth inhibition; type: cell-based; conditions: Homo sapiens, SGC-7901, 72 h, MTT, 72 hours incubation, SGC-7901 cells; read-out: GI50 SGC-7901
Source text: as §1, §2, §3, §4, §5, §6, §7

[7] = tested on: BGC-823 (human gastric cancer cells); experiment: MTT cancer cell growth inhibition; type: cell-based; conditions: Homo sapiens, BGC-823, 72 h, MTT, 72 hours incubation, read-out: GI50 BG
Source text: as §1, §2, §3, §4, §5, §6, §7

[8] = tested on: DU145 (human prostate cancer cells); experiment: MTT cancer cell growth inhibition; type: cell-based; conditions: Homo sapiens, DU-145, 72 h, MTT, 72 hours incubation, read-out: GI50 Du1
Source text: as §1, §2, §3, §4, §5, §6, §7

[9] = tested on: KBM5-T315I (human chronic myelogenous leukemia); experiment: MTT cancer cell growth inhibition; type: cell-based; conditions: Homo sapiens, 72 h, MTT, 72 hours incubation, KBM5-T315I cells; read-out: GI50 KBM5-T315I
Source text: as §1, §2, §3, §4, §5, §6, §7

[10] = tested on: PANC-1 (Pac-1, human pancreatic cancer cells); experiment: MTT cancer cell growth inhibition; type: cell-based; conditions: Homo sapiens, PANC-1, 72 h, MTT, 72 hours incubation, read-out: GI50 PAN
Source text: as §1, §2, §3, §4, §5, §6, §7

[11] = tested on: K562 (human leukemia cells); experiment: MTT cancer cell growth inhibition; type: cell-based; conditions: Homo sapiens, K562, 72 h, MTT, 72 hours incubation, K562 cells; read-out: GI50 K562
Source text: as §1, §2, §3, §4, §5, §6, §7

[12] = tested on: MCF-7 (human breast cancer cells); experiment: MTT cancer cell growth inhibition; type: cell-based; conditions: Homo sapiens, MCF7, 72 h, 72 hours incubation, read-out: GI50 MCF
Source text: as §1, §2, §3, §4, §5, §6, §7

[13] = tested on: Hela (human cervical cancer cells); experiment: MTT cancer cell growth inhibition; type: cell-based; conditions: Homo sapiens, HeLa, 72 h, MTT, 72 hours incubation, read-out: GI50 Hela
Source text: as §1, §2, §3, §4, §5, §6, §7

[14] = tested on: KBM-5 (human chronic myelogenous leukemia); experiment: MTT cancer cell growth inhibition; type: cell-based; conditions: Homo sapiens, KBM5, 72 h, MTT, 72 hours incubation, KBM-5 cells; read-out: GI50 KBM-5
Source text: as §1, §2, §3, §4, §5, §6, §7

[15] = tested on: A549 (human lung cancer cells); experiment: MTT cancer cell growth inhibition; type: cell-based; conditions: Homo sapiens, A549, 72 h, MTT, 72 hours incubation, read-out: GI50 A54
Source text: as §1, §2, §3, §4, §5, §6, §7

[16] = tested on: N-87 (human gastric cancer cells); experiment: MTT cancer cell growth inhibition; type: cell-based; conditions: Homo sapiens, 72 h, MTT, 72 hours incubation, N-87 cells; read-out: GI50 N-87
Source text: as §1, §2, §3, §4, §5, §6, §7

[17] = tested on: MDA-MB-231 (breast cancer cells); experiment: MTT cancer cell growth inhibition; type: cell-based; conditions: Homo sapiens, MDA-MB-231, 72 h, read-out: GI50 MDA-MB-231, MTT, 72 hours incubation, MDA-MB-231 cells
Source text: as §1, §2, §3, §4, §5, §6, §7

[18] = tested on: MOLT-4 (human acute lymphoblastic leukemia cells); experiment: MTT cancer cell growth inhibition; type: cell-based; conditions: Homo sapiens, MOLT-4, 72 h, MTT, 72 hours incubation, read-out: GI50 Mol
Source text: as §1, §2, §3, §4, §5, §6, §7

[19] = tested on: lncap (prostate cancer cells); experiment: MTT cancer cell growth inhibition; type: cell-based; conditions: Homo sapiens, LNCaP, 72 h, MTT, 72 hours incubation, read-out: GI50 lnca
Source text: as §1, §2, §3, §4, §5, §6, §7

[20] = tested on: U937 (human leukemia cells); experiment: MTT cancer cell growth inhibition; type: cell-based; conditions: Homo sapiens, U-937, 72 h, MTT, 72 hours incubation, read-out: GI50 U93
Source text: as §1, §2, §3, §4, §5, §6, §7

HDAC7 = biological target: T1, HDAC7 (Homo sapiens, UniProt Q8WUI4); experiment: HDAC biochemical activity measurement (fluorescent substrate deacetylation);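 further: fluorogenic deacetylation assay using acetyl-lysine substrate at 20 µM, enzyme and compound incubated 30 min at 37 °C, then developer added, fluorescence read at 360/460 nm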; conditions: HDAC7; 37° C. 30 minutes
T1 sequence (Q8WUI4 1-952): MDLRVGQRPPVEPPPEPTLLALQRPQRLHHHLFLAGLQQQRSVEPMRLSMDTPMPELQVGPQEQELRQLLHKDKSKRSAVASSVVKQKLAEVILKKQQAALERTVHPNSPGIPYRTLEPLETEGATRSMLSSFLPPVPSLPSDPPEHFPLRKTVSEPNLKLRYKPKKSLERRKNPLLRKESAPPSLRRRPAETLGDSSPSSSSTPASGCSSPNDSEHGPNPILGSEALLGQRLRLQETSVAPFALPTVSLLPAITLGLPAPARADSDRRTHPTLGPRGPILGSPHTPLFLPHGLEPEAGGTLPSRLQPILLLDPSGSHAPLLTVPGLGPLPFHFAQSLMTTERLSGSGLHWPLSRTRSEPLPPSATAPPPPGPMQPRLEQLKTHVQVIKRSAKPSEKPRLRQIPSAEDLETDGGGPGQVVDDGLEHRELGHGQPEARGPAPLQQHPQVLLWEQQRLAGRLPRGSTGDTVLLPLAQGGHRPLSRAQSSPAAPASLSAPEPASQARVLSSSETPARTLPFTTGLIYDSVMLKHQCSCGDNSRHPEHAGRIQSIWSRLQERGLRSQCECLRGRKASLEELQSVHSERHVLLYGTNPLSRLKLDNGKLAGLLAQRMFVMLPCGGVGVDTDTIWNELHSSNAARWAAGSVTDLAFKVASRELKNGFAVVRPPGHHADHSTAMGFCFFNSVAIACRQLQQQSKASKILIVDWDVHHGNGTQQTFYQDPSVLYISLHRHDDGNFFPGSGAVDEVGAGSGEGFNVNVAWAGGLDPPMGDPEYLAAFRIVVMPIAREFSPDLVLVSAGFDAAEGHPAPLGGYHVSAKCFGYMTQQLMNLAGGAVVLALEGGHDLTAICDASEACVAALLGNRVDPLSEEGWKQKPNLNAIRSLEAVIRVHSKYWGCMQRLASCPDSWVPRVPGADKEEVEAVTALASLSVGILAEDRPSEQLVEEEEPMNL

Row | GI50 [1] | GI50 [2] | GI50 [3] | GI50 [4] | GI50 [5] | GI50 [6] | GI50 [7] | GI50 [8] | GI50 [9] | GI50 [10] | GI50 [11] | GI50 [12] | GI50 [13] | GI50 [14] | GI50 [15] | GI50 [16] | GI50 [17] | GI50 [18] | GI50 [19] | IC50 HDAC7 (HDAC7) | Structure (SMILES) | other results
1 | 76 nM | 93 nM | 80 nM | 33 nM | 43 nM | 36 nM | 20 nM | 20 nM | 24 nM | 80 nM | 59 nM | 30 nM | 70 nM | 11 nM | 40 nM | 34 nM | 49 nM | 20 nM | 20 nM | no activity | C/C=C1\NC(=O)c2ccc(F)c(n2)CNC(=O)C[C@@H](/C=C/CCS)OC(=O)[C@H](C(C)C)NC1=O [Compound 108] | GI50 [20]: 30 nM
2 | 56 nM | 17 nM |  | 48 nM | 35 nM | 12 nM |  |  | 33 nM |  | 62 nM |  |  | 62 nM |  | 35 nM | 69 nM |  |  | no activity | C/C=C1\NC(=O)c2ccc(SC)c(n2)CNC(=O)C[C@@H](/C=C/CCS)OC(=O)[C@H](C(C)C)NC1=O [Compound 228] | GI50 ([3]; HT1080 cells): 40 nM; GI50 ([7]; BGC-823 cells): 60 nM; GI50 ([8]; DU145 cells): 20 nM; GI50 ([10]; PANC-1 cells): 30 nM; GI50 ([12]; MCF-7 cells): 30 nM; GI50 ([13]; Hela cells): 10 nM; GI50 ([15]; A549 cells): 30 nM; GI50 ([18]; MOLT-4 cells): 50 nM; GI50 ([19]; lncap cells): 20 nM; GI50 ([20]; U937 cells): 40 nM
3 | 11 nM | 58 nM | 50 nM | 35 nM | 73 nM | 31 nM | 30 nM | 20 nM | 71 nM | 50 nM | 28 nM | 30 nM | 30 nM | 67 nM | 50 nM | 46 nM | 26 nM | 30 nM | 30 nM | no activity | C/C=C1\NC(=O)c2ccc(F)c(n2)CNC(=O)C[C@@H](/C=C/CCSC(C)=O)OC(=O)[C@@H](C)NC1=O [Compound 102] | GI50 [20]: 40 nM
